Details of data set [1]: method as in doi:10.1007/s12247-019-09381-9. As to conditions: cited from earlier work.
For another data set, the system named is P-gp. The arrangement: method as in doi:10.1016/j.jddst.2022.103431. As to conditions: read-out: IC50 value of NRG for P-gp inhibition; cited from earlier work.
Data set [2] has as its system A549 cells. The experiment in a line: SRB (sulforhodamine B) cytotoxicity assay. Conditions: Homo sapiens, read-out: IC50 value. The format is cell-based. As for the experimental part: A cell suspension was made based on cell count, and 5000 cells were seeded per well in a 96-well plate. […] The SRB assay was performed after a 48 h incubation […], and the absorbance at 540 nm was determined using a plate reader.[40]

Data set [3] has as its system A549 cells. The experiment in a line: Cell cycle analysis by flow cytometry (propidium iodide). Type of data set: cell-based, human. Conditions: individual IC50 concentrations, 48 h. As for the experimental part:
Exponentially growing cells were detached from T-25 cell culture flasks using trypsin and then transferred to sterile Petri plates. The cells were allowed to attach and grow for approximately 24 h. After the attachment period, different treatments were applied to the cells, and the plates were further incubated for 48 h. The media was removed after 48 h of incubation, and the plates were rinsed two times with phosphate buffer. After that, the cells were trypsinized and centrifuged at 4 °C. After centrifugation, the pellet was fixed in 70% ice-cold ethanol for 30 min at 4 °C. The resulting pellet was resuspended in Dulbecco’s phosphate-buffered saline (PBS) to wash the cells. After another round of centrifugation, the supernatant was removed and the pellet was redispersed in a staining solution consisting RNase, propidium iodide, and NP-40. For 20 min, the cell suspension was incubated in the dark at room temperature. The cells were then analyzed with a BD Accuri C6 flow cytometer (BD Biosciences, San Jose, CA, USA).[42]

A further data set concerns CYP2C9. The arrangement: method as in PMID 33394101. Conditions: 33 adult NSCLC patients; cited from earlier work.
Details of data set [4]: method as in doi:10.1021/acs.cgd.7b01027. As to conditions: cited from earlier work.
Data set [5] can be described thus: Amorphous solubility, solvent quench method. The format is physicochemical. Conditions: higher in distilled water. As for the experimental part:
The amorphous solubility of CRT was measured using the solvent quench method, which employed methanol and HPMC as the solvent and crystallization inhibitor, respectively. […] The detailed amorphous solubility methodology can be found in Shete et al. (2021).[39]

A short description of data set [6]: Thermodynamic solubility, shake flask method. Type of data set: physicochemical. Conditions: phosphate buffer 50 mM pH 6.8, 24 h, 37 °C; read-out: thermodynamic solubility of CRT. As for the experimental part: Excess amounts of CRT and CAMs were added to solubility vials (2 mL) containing the buffer. These vials were then subjected to agitation on an orbital shaker for 24 h at 37 °C and 120 rpm. After this incubation period, the pH of the samples was checked and adjusted if necessary just before centrifugation. Centrifugation was carried out at 37 °C, 10,000 rpm, for 10 min, trailed by the collection of the supernatant and its dilution using the mobile phase. The samples were then analyzed by using the HPLC method described below. This experimental procedure was conducted in triplicate (n = 3).
The Shimadzu Prominence UHPLC with a UV detector was used for the analysis. A GraceSmart Brava BDS-C18 column (250 mm × 4.6 mm × 5 μm) was used for chromatographic separation. The mobile phase was given in a gradient manner with 42:50:8% v/v methanol:25 mM phosphate buffer pH 3.0:ACN for 5 min and 50:50% v/v acetonitrile:25 mM phosphate buffer pH 3.0 for 17 min at a flow rate of 1 mL/min.

Another data set has as its system CYP3A. Also on record: method as in PMID 33394101. Conditions: 33 adult NSCLC patients; cited from earlier work.
The nature of data set [7]: Oral pharmacokinetic study. Type of data set: in vivo, male Wistar rats. Conditions: single oral dose 15 mg/kg. As for the experimental part:
Pharmacokinetic studies were conducted by following the CPCSEA guidelines. MAHE-IAEC (IAEC/KMC/24/2020) approved the study. The study utilized a parallel design, with each group comprising 3 male Wistar rats weighing approximately 200 g, with a variation of ±20 g. Prior to treatment, the rats underwent a 12 h fasting period but were allowed access to water. Treatment A involved administering a dose of 15 mg/kg of CRT, suspended in a 0.5% (w/v) carboxyl methyl cellulose (CMC) aqueous solution. Treatment B consisted of a 15 mg/kg equivalent CRT CAMs suspension prepared in a 0.5% (w/v) CMC vehicle. The animals received 1 mL of the suspension orally via oral gavage. The interested readers are directed to the pharmacokinetic study reported by Yarlagadda et al. (2023) for detailed methodology.[38]

Where [8] appears, read: male, Wistar, rat, plasma, n = 3.

The values below come from PMC11304383 (Molecular Pharmaceutics, 2024).

In brackets after ≈: the same amount, converted by molar mass. Where two headings read alike, the source gives them in different places.

With `C[C@@H]1O[C@@H](O[C@H]2[C@H](Oc3cc(O)c4c(c3)O[C@H](c3ccc(O)cc3)CC4=O)O[C@H](CO)[C@@H](O)[C@@H]2O)[C@H](O)[C@H](O)[C@H]1O` [NRG, naringin], in [1], the “glass transition event temperature” value is 167 °C. The IC50 was 2400 µM in the data set with P-gp and 162 µM in the data set with A549 cells [2] (A549, SRB, 48 h incubation).
For `Cc1cc(Nc2ncc(Cl)c(Nc3ccccc3S(=O)(=O)C(C)C)n2)c(OC(C)C)cc1C1CCNCC1` [CRT, ceritinib], in the data set on A549 cells [3], the “%G1 (percentage of cells in G0/G1 phase)” value was 47.1% and the “%G2 (percentage of cells in G2/M phase)” value is listed as 23.9%. Moreover, in the data set with A549 cells [2] (A549, 48 h), the IC50 was 3.53 µM. The “improvement of AUC of S-warfarin by CRT” value with CYP2C9 is recorded as 56%. Also, in data set [4], the “excess enthalpy of CRT in water” value was -0.844 kcal/mol. Moreover, the “amorphous solubility of CRT, distilled water versus pH 6.8 phosphate buffer” value in data set [5] is listed as “approximately threefold”. For the same compound, the thermodynamic solubility at 24 h in [6] amounted to 3.3 µg/mL (≈ 5.91 µM). In the data set with CYP3A, the “enhancement of AUC of midazolam by CRT versus midazolam alone” value is reported as 5.42 fold and the “enhancement of Cmax of midazolam by CRT versus midazolam alone” value was 1.82 fold. Also, the Cmax in data set [7] (male, Wistar, rat, plasma, po, 15 mg/kg, n = 3, read-out: Cmax of CRT) is 173 ng/mL. In data set [7] (setting [8]), the MRT was 20.2 ± 0.75 h, the Tmax turned out to be 6 h and the half-life was 22.1 h. In [7] (male, Wistar, rat, plasma, n = 3, 72 h, read-out: AUC0–t of CRT), the AUC(0-t) turned out to be 3580 ± 218 ng·h/mL. Besides, the “Cmax of CRT” value in data set [7] (n = 3, 15 mg/kg) is reported as 173.26 ± 5.34 ng/mL.

One may read the IC50 as the concentration at which inhibition is half-maximal. The thermodynamic solubility is solubility found after equilibrating the solid with the medium. Usually Cmax stands for the highest concentration seen after dosing. In general, MRT refers to the average time that molecules of a dose stay in the body. Broadly, the Tmax is the time at which the peak concentration occurs. One may read the half-life as the time in which the quantity being followed falls by half. Read a low half-life as rapid decline.
